The results in this text go back to ChEMBL document CHEMBL5465560, “Selectivity Literature for EUbOPEN Chemogenomic Library” (2024).

Assay [1] concerns the target Serine/threonine-protein kinase PAK 4 (Homo sapiens, UniProt O96013). Kind of assay: Selectivity interaction (Kinase panel (DSF assay)) EUB0001558a PAK4.
The target in assay [2] is Mitogen-activated protein kinase 7 (Homo sapiens) (UniProt Q13164). Nature of the assay: Selectivity interaction (KinomeScan (DiscoverX)) EUB0000699a MAPK7. The following applies: at 10 µM.
Assay [3] addresses Mitogen-activated protein kinase kinase kinase 10 (Homo sapiens) (UniProt Q02779). Kind of assay: Selectivity interaction (KinomeScan (DiscoverX)) EUB0001079a MAP3K10. Conditions: at 1 µM.
In assay [4] the target is T1, Serine/threonine-protein kinase TBK1 (Homo sapiens) (UniProt Q9UHD2).
T1 sequence (whole entry): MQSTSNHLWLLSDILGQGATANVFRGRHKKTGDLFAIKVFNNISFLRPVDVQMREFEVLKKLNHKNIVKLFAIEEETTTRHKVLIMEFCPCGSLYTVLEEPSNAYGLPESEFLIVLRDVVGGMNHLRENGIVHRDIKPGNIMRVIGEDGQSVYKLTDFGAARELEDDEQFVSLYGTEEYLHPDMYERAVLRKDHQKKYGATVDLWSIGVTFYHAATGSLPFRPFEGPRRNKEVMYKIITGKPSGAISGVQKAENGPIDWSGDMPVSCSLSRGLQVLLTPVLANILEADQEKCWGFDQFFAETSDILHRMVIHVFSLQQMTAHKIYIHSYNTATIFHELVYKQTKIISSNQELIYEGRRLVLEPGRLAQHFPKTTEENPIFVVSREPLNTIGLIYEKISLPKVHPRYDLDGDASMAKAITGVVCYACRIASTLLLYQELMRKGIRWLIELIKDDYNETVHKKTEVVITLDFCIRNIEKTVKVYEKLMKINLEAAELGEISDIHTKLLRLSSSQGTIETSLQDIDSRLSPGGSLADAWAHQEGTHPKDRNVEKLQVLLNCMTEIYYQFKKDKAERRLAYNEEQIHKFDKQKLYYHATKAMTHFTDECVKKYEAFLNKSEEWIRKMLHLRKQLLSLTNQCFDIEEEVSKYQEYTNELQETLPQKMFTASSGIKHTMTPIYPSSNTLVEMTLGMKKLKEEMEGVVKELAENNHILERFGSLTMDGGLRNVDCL
Nature of the assay: Selectivity interaction (KinomeScan (DiscoverX)) EUB0000092b TBK1. Conditions: at 10 µM.

The target in assay [5] is T2, Dual specificity tyrosine-phosphorylation-regulated kinase 2 (Homo sapiens) (UniProt Q92630).
T2 sequence (whole entry): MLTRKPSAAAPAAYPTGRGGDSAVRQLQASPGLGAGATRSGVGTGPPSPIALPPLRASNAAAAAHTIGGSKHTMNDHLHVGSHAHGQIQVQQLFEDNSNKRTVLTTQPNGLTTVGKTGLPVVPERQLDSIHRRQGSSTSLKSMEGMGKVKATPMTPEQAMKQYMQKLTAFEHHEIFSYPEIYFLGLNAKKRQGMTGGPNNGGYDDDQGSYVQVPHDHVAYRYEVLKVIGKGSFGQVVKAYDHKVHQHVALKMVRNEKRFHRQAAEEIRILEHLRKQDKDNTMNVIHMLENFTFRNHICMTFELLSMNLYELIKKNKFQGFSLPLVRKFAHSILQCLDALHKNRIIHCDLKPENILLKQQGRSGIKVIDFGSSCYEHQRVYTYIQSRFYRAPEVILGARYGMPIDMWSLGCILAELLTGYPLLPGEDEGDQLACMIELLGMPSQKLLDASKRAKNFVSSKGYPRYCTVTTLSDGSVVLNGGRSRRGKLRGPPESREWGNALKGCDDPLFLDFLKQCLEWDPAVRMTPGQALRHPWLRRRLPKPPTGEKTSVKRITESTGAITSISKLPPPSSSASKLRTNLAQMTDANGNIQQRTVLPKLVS
Nature of the assay: Selectivity interaction (KinomeScan (DiscoverX)) EUB0001049a DYRK2. Conditions: at 1 µM.

For assay [6], the target named is Sodium channel protein type 2 subunit alpha (Homo sapiens) (UniProt Q99250). Nature of the assay: Selectivity interaction (Panel of non-epigenetic targets (kinases, GPCRs, ion channels, and transporters, Eurofins) ) EUB0000271b SCN2A. Conditions: at 1 µM.
For assay [7], the target named is Histone-lysine N-methyltransferase PRDM9 (Homo sapiens) (UniProt Q9NQV7). Kind of assay: Selectivity interaction (Methyltransferase screen (radiometric assays, panel of 8 PRMTs, 21 protein lysine methyltransferases, 3 DNA methyltransferases, and one RNA methyltransferase)) EUB0000271b PRDM9.
Histone-lysine N-methyltransferase PRDM9 (Homo sapiens), sequence (Q9NQV7 whole entry): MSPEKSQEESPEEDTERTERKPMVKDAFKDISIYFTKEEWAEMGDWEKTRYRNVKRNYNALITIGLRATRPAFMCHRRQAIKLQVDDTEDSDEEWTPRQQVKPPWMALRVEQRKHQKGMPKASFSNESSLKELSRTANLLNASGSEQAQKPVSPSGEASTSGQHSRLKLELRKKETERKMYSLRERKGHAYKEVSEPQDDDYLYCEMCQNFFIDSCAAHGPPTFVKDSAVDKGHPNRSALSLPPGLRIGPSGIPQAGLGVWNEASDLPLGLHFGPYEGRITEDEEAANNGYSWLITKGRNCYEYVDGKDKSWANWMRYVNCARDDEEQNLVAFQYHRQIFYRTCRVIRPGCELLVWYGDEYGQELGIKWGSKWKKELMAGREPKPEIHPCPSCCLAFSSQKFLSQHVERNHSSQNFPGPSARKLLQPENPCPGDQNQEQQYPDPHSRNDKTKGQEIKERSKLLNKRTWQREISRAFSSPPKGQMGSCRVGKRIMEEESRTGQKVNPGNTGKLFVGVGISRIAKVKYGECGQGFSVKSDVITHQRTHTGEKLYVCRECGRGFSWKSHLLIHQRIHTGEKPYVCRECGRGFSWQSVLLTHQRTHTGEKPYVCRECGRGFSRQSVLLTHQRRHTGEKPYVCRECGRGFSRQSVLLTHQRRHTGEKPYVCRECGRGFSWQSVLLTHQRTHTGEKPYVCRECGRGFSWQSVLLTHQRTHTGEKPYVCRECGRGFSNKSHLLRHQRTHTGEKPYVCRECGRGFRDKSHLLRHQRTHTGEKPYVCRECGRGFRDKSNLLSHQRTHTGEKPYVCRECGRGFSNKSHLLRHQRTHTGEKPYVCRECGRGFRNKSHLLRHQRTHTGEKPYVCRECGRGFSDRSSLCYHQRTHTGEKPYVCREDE
The target of assay [8] is Myosin light chain kinase 2, skeletal/cardiac muscle (Homo sapiens) (UniProt Q9H1R3). Nature of the assay: Selectivity interaction (KinomeScan (DiscoverX)) EUB0000666a MYLK2. Conditions: at 10 µM.
In assay [9] the target is Serine/threonine-protein kinase WNK3 (Homo sapiens) (UniProt Q9BYP7). Nature of the assay: Selectivity interaction (LanthaScreen Eu Kinase Binding Assay) EUB0001632a WNK3. Conditions: at 10 µM. Background: TR-FRET usually uses a lanthanide donor and a delayed reading to cut background.
Serine/threonine-protein kinase WNK3 (Homo sapiens), sequence (Q9BYP7 whole entry): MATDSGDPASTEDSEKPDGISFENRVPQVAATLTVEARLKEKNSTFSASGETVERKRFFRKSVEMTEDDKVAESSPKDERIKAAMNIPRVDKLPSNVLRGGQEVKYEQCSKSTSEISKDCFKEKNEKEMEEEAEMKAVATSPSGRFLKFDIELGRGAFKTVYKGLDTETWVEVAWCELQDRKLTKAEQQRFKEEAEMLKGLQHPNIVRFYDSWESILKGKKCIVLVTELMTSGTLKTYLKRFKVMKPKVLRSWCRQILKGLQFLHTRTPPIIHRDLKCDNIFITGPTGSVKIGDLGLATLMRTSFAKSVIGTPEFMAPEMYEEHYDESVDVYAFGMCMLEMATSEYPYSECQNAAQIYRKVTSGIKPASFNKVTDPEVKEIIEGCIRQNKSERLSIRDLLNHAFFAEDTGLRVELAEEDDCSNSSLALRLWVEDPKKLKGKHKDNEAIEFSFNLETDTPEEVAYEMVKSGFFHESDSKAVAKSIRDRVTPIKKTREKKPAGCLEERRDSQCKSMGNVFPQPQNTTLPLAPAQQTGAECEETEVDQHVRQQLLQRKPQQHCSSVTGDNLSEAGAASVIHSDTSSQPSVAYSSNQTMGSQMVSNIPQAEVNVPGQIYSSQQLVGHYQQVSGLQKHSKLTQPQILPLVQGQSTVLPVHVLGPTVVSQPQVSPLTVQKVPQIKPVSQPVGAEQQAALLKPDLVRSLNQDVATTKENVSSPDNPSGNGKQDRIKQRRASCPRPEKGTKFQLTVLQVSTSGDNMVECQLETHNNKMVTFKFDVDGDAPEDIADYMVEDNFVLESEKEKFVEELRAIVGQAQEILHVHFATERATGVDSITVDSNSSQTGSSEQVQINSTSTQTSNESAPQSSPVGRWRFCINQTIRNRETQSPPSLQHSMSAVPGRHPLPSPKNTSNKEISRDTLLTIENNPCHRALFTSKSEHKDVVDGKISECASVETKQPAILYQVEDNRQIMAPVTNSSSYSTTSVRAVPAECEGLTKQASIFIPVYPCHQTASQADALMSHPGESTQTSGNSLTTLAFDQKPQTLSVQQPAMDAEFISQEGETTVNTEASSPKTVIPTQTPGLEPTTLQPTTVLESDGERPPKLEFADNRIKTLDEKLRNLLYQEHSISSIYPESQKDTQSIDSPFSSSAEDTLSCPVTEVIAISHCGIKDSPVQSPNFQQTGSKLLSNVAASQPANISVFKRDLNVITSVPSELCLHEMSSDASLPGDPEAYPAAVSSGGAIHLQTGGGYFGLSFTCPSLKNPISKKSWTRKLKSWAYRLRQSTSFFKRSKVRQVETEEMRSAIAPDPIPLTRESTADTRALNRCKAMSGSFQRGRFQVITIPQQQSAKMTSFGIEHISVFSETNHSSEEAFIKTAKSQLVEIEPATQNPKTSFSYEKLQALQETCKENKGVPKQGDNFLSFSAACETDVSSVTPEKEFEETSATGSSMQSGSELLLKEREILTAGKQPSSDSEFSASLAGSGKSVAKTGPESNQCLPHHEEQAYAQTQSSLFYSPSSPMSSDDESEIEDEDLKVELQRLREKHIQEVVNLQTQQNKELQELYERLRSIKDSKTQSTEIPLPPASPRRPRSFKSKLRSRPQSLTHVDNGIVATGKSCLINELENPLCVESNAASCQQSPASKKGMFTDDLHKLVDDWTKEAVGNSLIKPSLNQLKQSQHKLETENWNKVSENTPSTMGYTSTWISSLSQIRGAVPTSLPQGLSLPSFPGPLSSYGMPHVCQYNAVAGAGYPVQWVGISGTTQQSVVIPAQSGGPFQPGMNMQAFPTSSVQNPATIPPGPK
For assay [10], the target named is Glycogen synthase kinase-3 alpha (Homo sapiens, UniProt P49840). Kind of assay: Selectivity interaction (Competition-binding assay (DiscoverX)) EUB0001632a GSK3A.
Assay [11] deals with G protein-coupled receptor kinase 6 (Homo sapiens) (UniProt P43250). Kind of assay: Selectivity interaction (SelectScreen profiling (Invitrogen)) EUB0000607a GRK6. Conditions: at 2 µM.
In assay [12] the target is Serine/threonine-protein kinase MARK2 (Homo sapiens) (UniProt Q7KZI7). Nature of the assay: Selectivity interaction (ActivX KiNativ screen (kinase selectivity in THP-1 cell lysates)) EUB0000639a MARK2. The class given is subcellular. The following applies: lysate, at 0.2 µM.
Serine/threonine-protein kinase MARK2 (Homo sapiens), sequence (Q7KZI7 whole entry): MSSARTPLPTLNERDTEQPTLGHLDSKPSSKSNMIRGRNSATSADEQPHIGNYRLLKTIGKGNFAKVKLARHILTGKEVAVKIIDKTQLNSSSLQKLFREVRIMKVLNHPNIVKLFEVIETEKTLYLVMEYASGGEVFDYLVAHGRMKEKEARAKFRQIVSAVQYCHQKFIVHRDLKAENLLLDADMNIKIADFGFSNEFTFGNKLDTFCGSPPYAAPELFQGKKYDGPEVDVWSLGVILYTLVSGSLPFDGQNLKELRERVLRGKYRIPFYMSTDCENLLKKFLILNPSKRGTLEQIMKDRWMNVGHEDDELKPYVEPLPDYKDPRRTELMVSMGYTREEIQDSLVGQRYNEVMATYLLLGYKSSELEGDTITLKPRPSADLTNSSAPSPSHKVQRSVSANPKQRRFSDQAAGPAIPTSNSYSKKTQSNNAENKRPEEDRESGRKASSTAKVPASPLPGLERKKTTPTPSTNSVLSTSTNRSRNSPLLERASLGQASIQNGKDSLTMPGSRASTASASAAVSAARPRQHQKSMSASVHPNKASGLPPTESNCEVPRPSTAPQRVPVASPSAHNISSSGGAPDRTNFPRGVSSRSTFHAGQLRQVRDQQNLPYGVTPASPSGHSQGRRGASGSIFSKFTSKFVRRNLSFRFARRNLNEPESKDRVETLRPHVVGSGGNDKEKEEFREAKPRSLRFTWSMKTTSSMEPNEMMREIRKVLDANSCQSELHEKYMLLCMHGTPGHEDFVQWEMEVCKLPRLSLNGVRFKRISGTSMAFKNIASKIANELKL
The next assay has as its target Motilin receptor (Homo sapiens, UniProt O43193). Kind of assay: Selectivity interaction (Motilin receptor binding assay, human recombinant ) EUB0000877a MLNR.
For the next assay, the target named is Aurora kinase A (Homo sapiens, UniProt O14965). Nature of the assay: Selectivity interaction (Kinase panel (33PanQinase(R) Activity Assay)) EUB0000877a STK6.
Aurora kinase A, sequence (O14965 whole entry): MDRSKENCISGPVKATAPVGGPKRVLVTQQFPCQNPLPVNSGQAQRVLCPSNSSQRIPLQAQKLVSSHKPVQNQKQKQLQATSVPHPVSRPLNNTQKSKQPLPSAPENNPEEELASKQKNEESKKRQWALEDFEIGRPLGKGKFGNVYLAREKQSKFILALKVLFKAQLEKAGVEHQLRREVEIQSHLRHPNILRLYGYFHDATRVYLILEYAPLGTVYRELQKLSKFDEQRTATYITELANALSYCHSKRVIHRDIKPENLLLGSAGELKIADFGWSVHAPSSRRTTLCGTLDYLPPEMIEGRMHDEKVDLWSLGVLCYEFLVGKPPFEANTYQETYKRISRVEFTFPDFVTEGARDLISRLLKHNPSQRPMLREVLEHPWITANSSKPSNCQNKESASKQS
The target of assay [13] is Ribosomal protein S6 kinase alpha-2 (Homo sapiens) (UniProt Q15349). Kind of assay: Selectivity interaction (KinomeScan (DiscoverX)) EUB0000311b RPS6KA2. Conditions: at 1 µM.
Assay [14] addresses Hepatocyte growth factor-like protein (Homo sapiens) (UniProt P26927). Kind of assay: Selectivity interaction (KinomeScan (DiscoverX)) EUB0000595a MST1. Conditions: at 10 µM.
For assay [15], the target named is Mitogen-activated protein kinase kinase kinase kinase 1 (Homo sapiens) (UniProt Q92918). Nature of the assay: Selectivity interaction (KinomeScan (DiscoverX)) EUB0000595a MAP4K1. Conditions: at 10 µM.
Assay [16] deals with Serine/threonine-protein kinase MRCK gamma (Homo sapiens) (UniProt Q6DT37). The following applies: at 10 µM.

Serine/threonine-protein kinase PAK 4, sequence (O96013 whole entry, looked up): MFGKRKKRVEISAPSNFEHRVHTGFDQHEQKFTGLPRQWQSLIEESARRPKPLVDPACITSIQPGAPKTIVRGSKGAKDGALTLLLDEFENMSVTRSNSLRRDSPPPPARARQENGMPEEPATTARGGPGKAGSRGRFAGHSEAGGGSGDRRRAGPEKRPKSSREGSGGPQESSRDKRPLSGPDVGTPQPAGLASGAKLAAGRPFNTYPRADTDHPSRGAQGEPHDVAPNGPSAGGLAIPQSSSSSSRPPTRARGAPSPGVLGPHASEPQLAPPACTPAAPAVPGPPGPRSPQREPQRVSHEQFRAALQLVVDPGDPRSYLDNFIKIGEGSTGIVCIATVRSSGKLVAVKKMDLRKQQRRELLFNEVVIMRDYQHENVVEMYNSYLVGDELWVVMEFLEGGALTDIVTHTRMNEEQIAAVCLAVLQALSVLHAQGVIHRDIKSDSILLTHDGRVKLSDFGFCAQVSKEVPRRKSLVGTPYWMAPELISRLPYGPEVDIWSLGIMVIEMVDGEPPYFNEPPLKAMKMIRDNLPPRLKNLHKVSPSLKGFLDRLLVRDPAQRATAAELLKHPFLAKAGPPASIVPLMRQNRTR
Motilin receptor, sequence (O43193 whole entry): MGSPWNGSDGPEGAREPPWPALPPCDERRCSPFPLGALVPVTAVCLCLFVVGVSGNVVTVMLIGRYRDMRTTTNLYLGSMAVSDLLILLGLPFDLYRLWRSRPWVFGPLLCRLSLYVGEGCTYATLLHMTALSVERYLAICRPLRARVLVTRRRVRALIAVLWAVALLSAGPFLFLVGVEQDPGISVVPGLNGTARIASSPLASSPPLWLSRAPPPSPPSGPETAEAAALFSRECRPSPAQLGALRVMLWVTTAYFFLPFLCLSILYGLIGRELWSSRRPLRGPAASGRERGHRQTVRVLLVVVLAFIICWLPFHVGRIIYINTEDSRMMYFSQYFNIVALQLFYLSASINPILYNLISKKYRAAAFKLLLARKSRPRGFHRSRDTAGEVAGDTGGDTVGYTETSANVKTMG

As to `CC(C)(O)[C@H](F)CN1Cc2cc(NC(=O)c3cnn4cccnc34)c(N3CCOCC3)cc2C1=O`, the dTM in assay [1] was determined as 1.1 K.
Consider `CCN(CC)CCCCNc1ncc2cc(-c3cc(OC)cc(OC)c3)c(NC(=O)NC(C)(C)C)nc2n1`, for which, in assay [2], the % of control was found to be 36%.
In assay [3], `Nc1cnc(N2CCc3cc(S(=O)(=O)Nc4c(F)cc(Cl)cc4F)cc(N4CCCC4=O)c32)nc1` [TP-020n] showed a % of control of 75%.
With `CCC(=O)N1CCN(c2ccc(-n3c(=O)ccc4cnc5ccc(-c6cnc7ccccc7c6)cc5c43)cc2C(F)(F)F)CC1`, in [4], the % of control came out at 93%.
In turn, `COc1cc(Nc2nc(C)cc(-c3cnn4nc(OC)ccc34)n2)cc(C(F)(F)F)c1` had a % of control in [5] of 79%.
Turning to `Cc1cc(C)cc([C@@H]2c3cc(C)ccc3NC(=O)CN2C(=O)c2ccc(Br)s2)c1`, the % of inhibition in [6] was -22%. Moreover, the % of activity in [7] (at 1 µM) turned out to be 102%; in [7] (at 10 µM), 97%.
`O=C(NOC[C@H](O)CO)c1ccc(F)c(F)c1Nc1ccc(I)cc1F` came in with a % of control in assay [8] of 100%.
As to `Cn1cc(-n2cnc3c(NCc4nc5cc(Cl)c(Cl)cc5[nH]4)nc(N4CCOCC4)nc32)cn1`, the % of inhibition in assay [9] is -35.1%. Moreover, in [10], binding was characterised by a dissociation constant (Kd) of 1.2 µM.
With `CNC(=O)Nc1ccc(-c2nc(N3CC4CCC(C3)O4)c3cnn(C4CCC5(CC4)OCCO5)c3n2)cc1`, the % of inhibition in assay [11] was -1%.
Regarding `CC[C@@H]1[C@H](F)C(=O)N[C@@H]1COc1nccc2cc(C(N)=O)c(OC)cc12` [ZIMLOVISERTIB], in assay [12], the % of inhibition was 4.2%.
For the molecule `CCC(=O)N1CC[C@H](Nc2ncnc3c2CN(c2cnc(OC)c(C(F)(F)F)c2)CC3)C1` [LENIOLISIB], the half-inhibitory concentration (IC50) (commonly the concentration at which inhibition is half-maximal) was over 30 µM at Motilin receptor and over 10 µM against Aurora kinase A.
As to `CCc1ccccc1C(=O)Nc1n[nH]c2c(C)c(F)c(C3C(C#N)=C(C)N(C)C(C)=C3C#N)cc12` [BAY-3827], the % of control in assay [13] was 0%.
Regarding `COCC(=O)NC/C=C/c1ccc2ncnc(Nc3ccc(Oc4ccc(C)nc4)c(C)c3)c2c1` [CP-724714], the values for the % of control in assay [14], in assay [15] and in assay [16] were 87%, 91% and 90%, respectively.
